Results: US20020137929A1, “1 - (3-heterocyclylphenyl) isothiourea, -isourea, -guanidine and -amidine herbicidal agents” (Intellectual Property Department, BASF Aktiengesellschaft, priority 1998, published 2002)

What was measured:
AMBEL (Ragweed, Common) = test: Postemergence herbicidal evaluation; format: in vivo, Ambrosia artemisifolia; details: postemergence
Summary of the method: (§1)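 Visual 0-9 injury score (stand, vigor, malformation, size, chlorosis, appearance vs untreated) taken four to five weeks post-spray, averaged across repeat tests. Test plants about two weeks old; foliar spray of acetone/water (1:1) with 0.5% surfactant delivering ~0.0156-0.500 kg active/ha.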

CASOB (Sicklepod) = test: Postemergence herbicidal evaluation; format: in vivo, Cassia obtusifolia; details: postemergence
Summary of the method: as §1

GALAP (Galium) [1] = test: Postemergence herbicidal evaluation; format: in vivo, Galium aparine; details: postemergence
Summary of the method: as §1

[2] = test system: GLXMAW (Soybean, Williams); test: Postemergence herbicidal evaluation; format: in vivo, Glycine max, (L.) Merr. cv Williams; details: postemergence
Summary of the method: as §1

[3] = test system: TRZAWR (Wheat, Winter, cv Riband); test: Postemergence herbicidal evaluation; format: in vivo, Triticum aestivum; details: postemergence
Summary of the method: as §1

GALAP (Galium) [4] = test: Preemergence herbicidal evaluation; format: in vivo, Galium aparine; details: rated 4-5 weeks after treatment, rating scale 0-9
Summary of the method: (§2)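 Herbicidal effect scored visually, 0-9, at 4 to 5 weeks against a control; compound applied preemergence by aqueous acetone spray to seeded soil at about 0.0156 to 0.500 kg/ha.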

SETVI (Foxtail, Green) = test: Preemergence herbicidal evaluation; format: in vivo, Setaria viridis; details: rated 4-5 weeks after treatment, rating scale 0-9
Summary of the method: as §2

ORYSAT (Rice, Tebonnet) = test: Preemergence herbicidal evaluation; format: in vivo, Oryza sativa, (L.) Tebonnet; details: rated 4-5 weeks after treatment, rating scale 0-9
Summary of the method: as §2

[5] = test system: ECHORC (Watergrass (Calif.)); test: Preemergence weed control under flooded paddy conditions; format: in vivo, Echinochloa oryzoides; details: rated 3-4 weeks after treatment
Summary of the method: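 Herbicidal effect is scored visually on a 0-9 scale against an untreated control, three to four weeks after compounds are pipetted into the flood water (1.5 to 3 cm deep) over seeds planted in silt loam at 0.5 cm depth. Rates: about 0.0313 to 0.500 kg/ha.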

CYPSE (Flatsedge) = test: as above; format: in vivo, Cyperus serotinus; details: rated 3-4 weeks after treatment
Summary of the method: (§3)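 Ratings on a 0-9 visual scale cover stand, vigor, malformation, size, chlorosis and overall appearance relative to a control, taken three to four weeks post-treatment. Application was into flood water over freshly sown silt loam at roughly 0.0313 to 0.500 kg/ha.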

MOOVA (Monochoria) = test: as above; format: in vivo, Monochoria vaginalis; details: rated 3-4 weeks after treatment
Summary of the method: as §3

[6] = test system: SAGPY (Arrowhead (Pygmaea)); test: as above; format: in vivo, Sagittaria pygmaea; details: rated 3-4 weeks after treatment
Summary of the method: as §3

Compound: Cc1cccc(CN2C(=O)CSC2=Nc2cc(-n3c(=O)cc(C(F)(F)F)n(C)c3=O)c(F)cc2Cl)c1 [Compound 130, 3-{4-Chloro-2-fluoro-5-{[3-(m-methylbenzyl)-4-oxo-2-thiazolidinylidene]amino}phenyl}-1-methyl-6-(trifluoromethyl)-2,4 (1H, 3H)-pyrimidinedione]
- herbicidal rating AMBEL (AMBEL (Ragweed, Common); rate 0.0156 kg/ha): 9.0
- herbicidal rating AMBEL (AMBEL (Ragweed, Common); rate 0.0313 kg/ha): 9.0
- herbicidal rating AMBEL (AMBEL (Ragweed, Common); rate 0.0625 kg/ha): 9.0
- herbicidal rating CASOB (CASOB (Sicklepod); rate 0.0156 kg/ha): 2.0
- herbicidal rating CASOB (CASOB (Sicklepod); rate 0.0313 kg/ha): 4.0
- herbicidal rating CASOB (CASOB (Sicklepod); rate 0.0625 kg/ha): 5.0
- herbicidal rating GALAP (GALAP (Galium) [1]; rate 0.0156 kg/ha): 2.0
- herbicidal rating GALAP (GALAP (Galium) [1]; rate 0.0313 kg/ha): 3.0
- herbicidal rating GALAP (GALAP (Galium) [1]; rate 0.0625 kg/ha): 5.0
- herbicidal rating GLXMAW ([2]; rate 0.0156 kg/ha): 5.5
- herbicidal rating GLXMAW ([2]; rate 0.0313 kg/ha): 7.0
- herbicidal rating GLXMAW ([2]; rate 0.0625 kg/ha): 8.0
- herbicidal rating TRZAWR ([3]; rate 0.0156 kg/ha): 3.5
- herbicidal rating TRZAWR ([3]; rate 0.0313 kg/ha): 3.5
- herbicidal rating TRZAWR ([3]; rate 0.0625 kg/ha): 4.0
- Preemergence herbicidal rating GALAP (GALAP (Galium) [4]; rate 0.0156 kg/ha): 0.0
- Preemergence herbicidal rating GALAP (GALAP (Galium) [4]; rate 0.0625 kg/ha): 0.0
- Preemergence herbicidal rating GALAP (GALAP (Galium) [4]; rate 0.1250 kg/ha): 2.0
- Preemergence herbicidal rating GALAP (GALAP (Galium) [4]; rate 0.2500 kg/ha): 2.0
- Preemergence herbicidal rating SETVI (SETVI (Foxtail, Green); rate 0.0156 kg/ha): 0.0
- Preemergence herbicidal rating SETVI (SETVI (Foxtail, Green); rate 0.0313 kg/ha): 6.0
- Preemergence herbicidal rating SETVI (SETVI (Foxtail, Green); rate 0.0625 kg/ha): 7.0
- Preemergence herbicidal rating SETVI (SETVI (Foxtail, Green); rate 0.1250 kg/ha): 7.0
- Preemergence herbicidal rating SETVI (SETVI (Foxtail, Green); rate 0.2500 kg/ha): 9.0
- Preemergence herbicidal rating ORYSAT (ORYSAT (Rice, Tebonnet); rate 0.0156 kg/ha): 0.0
- Preemergence herbicidal rating ORYSAT (ORYSAT (Rice, Tebonnet); rate 0.0313 kg/ha): 0.0
- Preemergence herbicidal rating ORYSAT (ORYSAT (Rice, Tebonnet); rate 0.0625 kg/ha): 1.0
- Preemergence herbicidal rating ORYSAT (ORYSAT (Rice, Tebonnet); rate 0.1250 kg/ha): 3.0
- Preemergence herbicidal rating ORYSAT (ORYSAT (Rice, Tebonnet); rate 0.2500 kg/ha): 6.0
- herbicidal effect rating, ECHORC ([5]; 0.0313 kg/ha): 0.0
- herbicidal effect rating, ECHORC ([5]; 0.0625 kg/ha): 2.0
- herbicidal effect rating, ECHORC ([5]; 0.1250 kg/ha): 3.0
- herbicidal effect rating, ECHORC ([5]; 0.2500 kg/ha): 4.0
- herbicidal effect rating, CYPSE (CYPSE (Flatsedge); 0.0313 kg/ha): 5.0
- herbicidal effect rating, CYPSE (CYPSE (Flatsedge); 0.0625 kg/ha): 5.0
- herbicidal effect rating, CYPSE (CYPSE (Flatsedge); 0.1250 kg/ha): 0.0
- herbicidal effect rating, CYPSE (CYPSE (Flatsedge); 0.2500 kg/ha): 7.0
- herbicidal effect rating, MOOVA (MOOVA (Monochoria); 0.0313 kg/ha): 0.0
- herbicidal effect rating, MOOVA (MOOVA (Monochoria); 0.0625 kg/ha): 0.0
- herbicidal effect rating, MOOVA (MOOVA (Monochoria); 0.1250 kg/ha): 6.0
- herbicidal effect rating, MOOVA (MOOVA (Monochoria); 0.2500 kg/ha): 6.0
- herbicidal effect rating, SAGPY ([6]; 0.0313 kg/ha): 4.0
- herbicidal effect rating, SAGPY ([6]; 0.0625 kg/ha): 4.0
- herbicidal effect rating, SAGPY ([6]; 0.1250 kg/ha): 0.0
- herbicidal effect rating, SAGPY ([6]; 0.2500 kg/ha): 3.0

Compound: Cn1c(C(F)(F)F)cc(=O)n(-c2cc(N=C3SCC(=O)N3Cc3ccc(S(N)(=O)=O)cc3)c(Cl)cc2F)c1=O [Compound 135, Alpha-{2-{{2-chloro-5-[3,6-dihydro-3-methyl-2,6-dioxo-4-(trifluoromethyl)-1(2H)-pyrimidinyl]-4-fluorophenyl}imino}-4-oxo-3-thiazolidinyl}-p-toluenesulfonamide]
- herbicidal rating AMBEL (AMBEL (Ragweed, Common); rate 0.0156 kg/ha): 9.0
- herbicidal rating AMBEL (AMBEL (Ragweed, Common); rate 0.0313 kg/ha): 9.0
- herbicidal rating AMBEL (AMBEL (Ragweed, Common); rate 0.0625 kg/ha): 9.0
- herbicidal rating CASOB (CASOB (Sicklepod); rate 0.0156 kg/ha): 2.0
- herbicidal rating CASOB (CASOB (Sicklepod); rate 0.0313 kg/ha): 4.0
- herbicidal rating CASOB (CASOB (Sicklepod); rate 0.0625 kg/ha): 4.0
- herbicidal rating GALAP (GALAP (Galium) [1]; rate 0.0156 kg/ha): 1.0
- herbicidal rating GALAP (GALAP (Galium) [1]; rate 0.0313 kg/ha): 3.0
- herbicidal rating GALAP (GALAP (Galium) [1]; rate 0.0625 kg/ha): 4.0
- herbicidal rating GLXMAW ([2]; rate 0.0156 kg/ha): 5.0
- herbicidal rating GLXMAW ([2]; rate 0.0313 kg/ha): 5.0
- herbicidal rating GLXMAW ([2]; rate 0.0625 kg/ha): 5.0
- herbicidal rating TRZAWR ([3]; rate 0.0156 kg/ha): 2.5
- herbicidal rating TRZAWR ([3]; rate 0.0313 kg/ha): 2.5
- herbicidal rating TRZAWR ([3]; rate 0.0625 kg/ha): 3.0
- Preemergence herbicidal rating GALAP (GALAP (Galium) [4]; rate 0.0156 kg/ha): 0.0
- Preemergence herbicidal rating GALAP (GALAP (Galium) [4]; rate 0.0313 kg/ha): 0.0
- Preemergence herbicidal rating GALAP (GALAP (Galium) [4]; rate 0.0625 kg/ha): 0.0
- Preemergence herbicidal rating GALAP (GALAP (Galium) [4]; rate 0.1250 kg/ha): 0.0
- Preemergence herbicidal rating GALAP (GALAP (Galium) [4]; rate 0.2500 kg/ha): 1.0
- Preemergence herbicidal rating SETVI (SETVI (Foxtail, Green); rate 0.0156 kg/ha): 0.0
- Preemergence herbicidal rating SETVI (SETVI (Foxtail, Green); rate 0.0313 kg/ha): 0.0
- Preemergence herbicidal rating SETVI (SETVI (Foxtail, Green); rate 0.0625 kg/ha): 2.0
- Preemergence herbicidal rating SETVI (SETVI (Foxtail, Green); rate 0.1250 kg/ha): 4.0
- Preemergence herbicidal rating SETVI (SETVI (Foxtail, Green); rate 0.2500 kg/ha): 7.0
- Preemergence herbicidal rating ORYSAT (ORYSAT (Rice, Tebonnet); rate 0.0156 kg/ha): 1.0
- Preemergence herbicidal rating ORYSAT (ORYSAT (Rice, Tebonnet); rate 0.0313 kg/ha): 1.0
- Preemergence herbicidal rating ORYSAT (ORYSAT (Rice, Tebonnet); rate 0.0625 kg/ha): 1.0
- Preemergence herbicidal rating ORYSAT (ORYSAT (Rice, Tebonnet); rate 0.1250 kg/ha): 1.0
- Preemergence herbicidal rating ORYSAT (ORYSAT (Rice, Tebonnet); rate 0.2500 kg/ha): 7.0
- herbicidal effect rating, ECHORC ([5]; 0.0313 kg/ha): 7.0
- herbicidal effect rating, ECHORC ([5]; 0.0625 kg/ha): 7.0
- herbicidal effect rating, ECHORC ([5]; 0.1250 kg/ha): 7.0
- herbicidal effect rating, ECHORC ([5]; 0.2500 kg/ha): 9.0
- herbicidal effect rating, CYPSE (CYPSE (Flatsedge); 0.1250 kg/ha): 0.0
- herbicidal effect rating, CYPSE (CYPSE (Flatsedge); 0.2500 kg/ha): 0.0
- herbicidal effect rating, MOOVA (MOOVA (Monochoria); 0.0313 kg/ha): 6.0
- herbicidal effect rating, MOOVA (MOOVA (Monochoria); 0.0625 kg/ha): 9.0
- herbicidal effect rating, MOOVA (MOOVA (Monochoria); 0.1250 kg/ha): 9.0
- herbicidal effect rating, MOOVA (MOOVA (Monochoria); 0.2500 kg/ha): 8.0
- herbicidal effect rating, SAGPY ([6]; 0.0313 kg/ha): 0.0
- herbicidal effect rating, SAGPY ([6]; 0.0625 kg/ha): 3.0
- herbicidal effect rating, SAGPY ([6]; 0.1250 kg/ha): 5.0
- herbicidal effect rating, SAGPY ([6]; 0.2500 kg/ha): 6.0
